Test results reported in ChEMBL document CHEMBL1201862, “PubChem BioAssay data set” (2004).
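Method: 48-hour compound exposure of cells in 96-well plates, five concentrations, linear interpolation of endpoints. GI50 marks 50% less growth.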 Activity calls are given as the source filed them. Cut-off read from the data, not from the text of the source: active = GI50 up to about 1.1 µM and inactive = higher.

Columns and labels:
Test in all cases: DTP human tumour cell line panel, 48 h
786-0 = tested on: 786-0
A498 = tested on: A498
A549 = tested on: A549
ACHN = tested on: ACHN
CAKI-1 = tested on: CAKI-1
CCRF-CEM = tested on: CCRF-CEM
COLO 205 = tested on: COLO 205
DLD-1 = tested on: DLD-1
DMS-114 = tested on: DMS-114
DMS-273 = tested on: DMS-273
EKVX = tested on: EKVX
HCC 2998 = tested on: HCC 2998
HCT-116 = tested on: HCT-116
HCT-15 = tested on: HCT-15
HL-60 = tested on: HL-60
HOP-18 = tested on: HOP-18
HOP-62 = tested on: HOP-62
HOP-92 = tested on: HOP-92
HT-29 = tested on: HT-29
IGROV-1 = tested on: IGROV-1
K562 = tested on: K562
KM-20L2 = tested on: KM-20L2
KM12 = tested on: KM12
LOX IMVI = tested on: LOX IMVI
LXFL 529 = tested on: LXFL 529
M14 = tested on: M14
M19-MEL = tested on: M19-MEL
MOLT-4 = tested on: MOLT-4
Malme-3M = tested on: Malme-3M
NCI-H226 = tested on: NCI-H226
NCI-H23 = tested on: NCI-H23
NCI-H460 = tested on: NCI-H460
NCI-H522 = tested on: NCI-H522
OVCAR-3 = tested on: OVCAR-3
OVCAR-4 = tested on: OVCAR-4
OVCAR-5 = tested on: OVCAR-5
OVCAR-8 = tested on: OVCAR-8
RPMI-8226 = tested on: RPMI-8226
SF-268 = tested on: SF-268
SF-295 = tested on: SF-295
SK-MEL-28 = tested on: SK-MEL-28
SK-MEL-2 = tested on: SK-MEL-2
SK-MEL-5 = tested on: SK-MEL-5
SK-OV-3 = tested on: SK-OV-3
SN12C = tested on: SN12C
SNB-19 = tested on: SNB-19
SNB-75 = tested on: SNB-75
SNB-78 = tested on: SNB-78
SW-620 = tested on: SW-620
TK-10 = tested on: TK-10
U-251 = tested on: U-251
UACC-257 = tested on: UACC-257
UACC-62 = tested on: UACC-62
UO-31 = tested on: UO-31
XF498 = tested on: XF498
RXF 393 = tested on: RXF 393
SF-539 = tested on: SF-539
SR = tested on: SR

In the case of O=C1C=CC2(O)OCC3C=C4O[C@@H]5OC6(CCCCC6)O[C@@H]5C4[C@@H]2[C@@H]13 (stereo partly drawn), the GI50 (786-0) is reported as 20.4 µM (inactive), the GI50 (A498) is reported as 72.4 µM (inactive) and the GI50 (A549) is reported as > 100 µM (inactive). The GI50 (ACHN) was 26.1 µM (inactive), the GI50 (CAKI-1) was 22.7 µM (inactive) and the GI50 (CCRF-CEM) was 8.73 µM (inactive). For the same molecule, the GI50 (COLO 205) was 15.3 µM (inactive), the GI50 (DLD-1) was 22.4 µM (inactive) and the GI50 (DMS-114) was 21.5 µM (inactive). For the same molecule, the GI50 (DMS-273) was 50.4 µM (inactive), the GI50 (EKVX) was 38.3 µM (inactive) and the GI50 (HCC 2998) was 53.2 µM (inactive). For the same molecule, the GI50 (HCT-116) was 15.8 µM (inactive), the GI50 (HCT-15) was 17 µM and the GI50 (HL-60) was 16.5 µM (inactive). The GI50 (HOP-18) was > 100 µM (inactive), the GI50 (HOP-62) was > 100 µM (inactive) and the GI50 (HOP-92) was 13.2 µM (inactive). For the same molecule, the GI50 (HT-29) was 22.3 µM (inactive), the GI50 (IGROV-1) was 56.4 µM (inactive) and the GI50 (K562) was 14.5 µM (inactive). For the same molecule, the GI50 (KM-20L2) was 48.3 µM (inactive), the GI50 (KM12) was 38.5 µM (inactive) and the GI50 (LOX IMVI) was 42.6 µM (inactive). For the same molecule, the GI50 (LXFL 529) was 15.1 µM (inactive), the GI50 (M14) was 20.5 µM (inactive) and the GI50 (M19-MEL) was 21.1 µM (inactive). For the same molecule, the GI50 (MOLT-4) was 9.25 µM (inactive), the GI50 (Malme-3M) was 30.3 µM (inactive) and the GI50 (NCI-H226) was 33.6 µM (inactive). For the same molecule, the GI50 (NCI-H23) was 23.8 µM (inactive), the GI50 (NCI-H460) was > 100 µM (inactive) and the GI50 (NCI-H522) was 11.3 µM (inactive). For the same molecule, the GI50 (OVCAR-3) was 24.2 µM (inactive), the GI50 (OVCAR-4) was 22.6 µM (inactive) and the GI50 (OVCAR-5) was 31.8 µM (inactive). For the same molecule, the GI50 (OVCAR-8) was 24.9 µM (inactive), the GI50 (RPMI-8226) was 16.2 µM (inactive) and the GI50 (SF-268) was 33.2 µM (inactive). For the same molecule, the GI50 (SF-295) was > 100 µM (inactive), the GI50 (SK-MEL-28) was 20 µM (inactive) and the GI50 (SK-MEL-2) was 82 µM (inactive). For the same molecule, the GI50 (SK-MEL-5) was 43.5 µM (inactive), the GI50 (SK-OV-3) was > 100 µM (inactive) and the GI50 (SN12C) was 48 µM (inactive). The GI50 (SNB-19) was > 100 µM (inactive), the GI50 (SNB-75) was 35.6 µM (inactive) and the GI50 (SNB-78) was 24.4 µM (inactive). For the same molecule, the GI50 (SW-620) was 27.4 µM (inactive), the GI50 (TK-10) was 20.7 µM (inactive) and the GI50 (U-251) was > 100 µM (inactive). For the same molecule, the GI50 (UACC-257) was 17.8 µM (inactive), the GI50 (UACC-62) was 32.7 µM (inactive) and the GI50 (UO-31) was 18.6 µM (inactive). For the same molecule, the GI50 (XF498) was 27.2 µM (inactive).
In the case of O=C(Nc1ccc(Cl)cc1)c1cc2cc(/N=N/c3ccccc3Cl)ccc2oc1=O, the GI50 (A549) is reported as 29.2 µM (inactive), the GI50 (ACHN) is reported as 6.3 µM (inactive) and the GI50 (CAKI-1) is reported as 24.9 µM (inactive). For the same molecule, the GI50 (CCRF-CEM) was 2.01 µM (inactive), the GI50 (COLO 205) was 34.1 µM (inactive) and the GI50 (DLD-1) was 9.64 µM (inactive). For the same molecule, the GI50 (DMS-114) was 5.81 µM (inactive), the GI50 (EKVX) was 25.5 µM (inactive) and the GI50 (HCC 2998) was 18.9 µM (inactive). The GI50 (HCT-116) was 11.2 µM (inactive), the GI50 (HCT-15) was 2.74 µM and the GI50 (HL-60) was 2.14 µM (inactive). The GI50 (HOP-18) was 33.8 µM (inactive), the GI50 (HOP-62) was 26.9 µM (inactive) and the GI50 (HOP-92) was 18.9 µM (inactive). For the same molecule, the GI50 (HT-29) was 15.2 µM (inactive), the GI50 (IGROV-1) was 19 µM (inactive) and the GI50 (K562) was 5.28 µM (inactive). For the same molecule, the GI50 (KM-20L2) was 4.93 µM (inactive), the GI50 (LXFL 529) was 8.11 µM (inactive) and the GI50 (M14) was 15.5 µM (inactive). For the same molecule, the GI50 (M19-MEL) was 14.3 µM (inactive), the GI50 (MOLT-4) was 2.58 µM (inactive) and the GI50 (Malme-3M) was 18.5 µM (inactive). The GI50 (NCI-H226) was 22.3 µM (inactive), the GI50 (NCI-H23) was 13.3 µM (inactive) and the GI50 (NCI-H460) was 26.8 µM (inactive). The GI50 (NCI-H522) was 21.7 µM (inactive), the GI50 (OVCAR-3) was 22.2 µM (inactive) and the GI50 (OVCAR-4) was 22 µM (inactive). For the same molecule, the GI50 (OVCAR-5) was 44.6 µM (inactive), the GI50 (OVCAR-8) was 13.4 µM (inactive) and the GI50 (RPMI-8226) was 4.76 µM (inactive). The GI50 (RXF 393) was 46.9 µM (inactive), the GI50 (SF-268) was 15.2 µM (inactive) and the GI50 (SF-295) was 28.7 µM (inactive). The GI50 (SF-539) was 14 µM (inactive), the GI50 (SK-MEL-28) was 15.9 µM (inactive) and the GI50 (SK-MEL-2) was 18.1 µM (inactive). For the same molecule, the GI50 (SK-MEL-5) was 22.2 µM (inactive), the GI50 (SK-OV-3) was 46.9 µM (inactive) and the GI50 (SN12C) was 18.7 µM (inactive). For the same molecule, the GI50 (SNB-19) was 27.5 µM (inactive), the GI50 (SNB-75) was 24 µM (inactive) and the GI50 (SNB-78) was 22.9 µM (inactive). The GI50 (SR) was 15.8 µM (inactive), the GI50 (SW-620) was 18.1 µM (inactive) and the GI50 (TK-10) was 33.3 µM (inactive). The GI50 (U-251) was 14.2 µM (inactive), the GI50 (UACC-257) was 19.2 µM (inactive) and the GI50 (UACC-62) was 8.39 µM (inactive). For the same molecule, the GI50 (UO-31) was 11.6 µM (inactive) and the GI50 (XF498) was 24.4 µM (inactive).
In the case of CC(C)(C)c1ccc2c(c1)C(O)(c1ccccc1)c1cc(C(C)(C)C)ccc1C2(O)C(F)(F)F (stereo not drawn), the GI50 (786-0) is reported as 1.88 µM (inactive), the GI50 (A498) is reported as 1.83 µM (inactive) and the GI50 (A549) is reported as 1.88 µM (inactive). For the same molecule, the GI50 (ACHN) was 2.14 µM (inactive), the GI50 (CAKI-1) was 1.74 µM (inactive) and the GI50 (CCRF-CEM) was 2.13 µM (inactive). The GI50 (COLO 205) was 1.82 µM (inactive), the GI50 (DLD-1) was 2.03 µM (inactive) and the GI50 (DMS-114) was 2.04 µM (inactive). For the same molecule, the GI50 (DMS-273) was 1.74 µM (inactive), the GI50 (EKVX) was 3.03 µM (inactive) and the GI50 (HCC 2998) was 2.1 µM (inactive). For the same molecule, the GI50 (HCT-116) was 1.87 µM (inactive), the GI50 (HCT-15) was 1.39 µM and the GI50 (HL-60) was 2.29 µM (inactive). The GI50 (HOP-18) was 2.2 µM (inactive), the GI50 (HOP-62) was 1.29 µM (inactive) and the GI50 (HOP-92) was 1.97 µM (inactive). For the same molecule, the GI50 (HT-29) was 1.57 µM (inactive), the GI50 (IGROV-1) was 2.15 µM (inactive) and the GI50 (K562) was 2.56 µM (inactive). For the same molecule, the GI50 (KM-20L2) was 1.59 µM (inactive), the GI50 (KM12) was 1.93 µM (inactive) and the GI50 (LOX IMVI) was 1.82 µM (inactive). For the same molecule, the GI50 (LXFL 529) was 1.97 µM (inactive), the GI50 (M14) was 1.92 µM (inactive) and the GI50 (M19-MEL) was 1.85 µM (inactive). The GI50 (MOLT-4) was 1.77 µM (inactive), the GI50 (Malme-3M) was 2.51 µM (inactive) and the GI50 (NCI-H226) was 1.05 µM (active). For the same molecule, the GI50 (NCI-H23) was 1.81 µM (inactive), the GI50 (NCI-H460) was 1.61 µM (inactive) and the GI50 (NCI-H522) was 1.64 µM (inactive). The GI50 (OVCAR-3) was 1.94 µM (inactive), the GI50 (OVCAR-4) was 1.83 µM (inactive) and the GI50 (OVCAR-5) was 1.66 µM (inactive). The GI50 (OVCAR-8) was 2.12 µM (inactive), the GI50 (RXF 393) was 1.82 µM (inactive) and the GI50 (SF-268) was 2.27 µM (inactive). The GI50 (SF-295) was 1.43 µM (inactive), the GI50 (SF-539) was 1.74 µM (inactive) and the GI50 (SK-MEL-28) was 2.09 µM (inactive). The GI50 (SK-MEL-2) was 1.76 µM (inactive), the GI50 (SK-OV-3) was 3.24 µM (inactive) and the GI50 (SN12C) was 1.76 µM (inactive). The GI50 (SNB-19) was 2.27 µM (inactive), the GI50 (SNB-75) was 2.13 µM (inactive) and the GI50 (SR) was 2.13 µM (inactive). For the same molecule, the GI50 (SW-620) was 1.88 µM (inactive), the GI50 (TK-10) was 3.98 µM (inactive) and the GI50 (U-251) was 1.81 µM (inactive). The GI50 (UACC-257) was 2.33 µM (inactive), the GI50 (UACC-62) was 1.63 µM (inactive) and the GI50 (UO-31) was 2.11 µM (inactive). The GI50 (XF498) was 1.53 µM (inactive).
